Our source for the mutagenic call values is PubChem BioAssay AID1259407 (Chemical Carcinogenesis Research Information System (CCRIS), 2018).

The series relates to CCRIS mutagenicity, Ames/micronucleus/aberration tests. The series can be described thus: CCRIS mutagenicity studies.
[1] abbreviates: Test System: AMES SALMONELLA TYPHIMURIUM, Strain/Indicator: TA98, Metabolic Activation: NONE, Method: PREINCUBATION
[2] abbreviates: Test System: AMES SALMONELLA TYPHIMURIUM, Strain/Indicator: TA100, Metabolic Activation: NONE, Method: PREINCUBATION
Setting [3] is: Test System: UDS RODENT HEPATOCYTES, Strain/Indicator: THY INCORP (NON-S-PHASE), Method: AUTORADIOGRAPHY
Setting [4] is: Test System: AMES SALMONELLA TYPHIMURIUM, Strain/Indicator: TA98, Metabolic Activation: NONE, Method: STANDARD PLATE.
Where [5] appears, read: Test System: AMES SALMONELLA TYPHIMURIUM, Strain/Indicator: TA98, Metabolic Activation: RAT, LIVER, S-9, AROCLOR 1254, Method: STANDARD PLATE.

The source made the active and inactive calls. The rule behind the calls is not given here.

For the molecule `O=NN1CCOCC1`, the mutagenic call was “active; positive” (End Point: IN VITRO CHROMOSOMAL ABERRATIONS, Test System: HEPG2 HEPATOMA (HUMAN), Metabolic Activation: NONE); “active; positive” (End Point: IN VITRO CHROMOSOMAL ABERRATIONS, Test System: V79 CELLS, Metabolic Activation: NONE); “inactive; negative” (End Point: IN VITRO CHROMOSOMAL ABERRATIONS, Test System: VH10 CELLS (HUMAN), Metabolic Activation: NONE); “inactive; negative” (Test System: AMES SALMONELLA TYPHIMURIUM, Strain/Indicator: TA98, Metabolic Activation: HAMSTER, LIVER, S-9, AROCLOR 1254 (30%), Method: PREINCUBATION); “inactive; negative” under setting [1]; “inactive; negative” (Test System: AMES SALMONELLA TYPHIMURIUM, Strain/Indicator: TA98, Metabolic Activation: RAT, LIVER, S-9, AROCLOR 1254 (30%), Method: PREINCUBATION). Also, the mutagenic call reads like this: (Test System: AMES SALMONELLA TYPHIMURIUM, Strain/Indicator: TA98, Metabolic Activation: S-9, Method: PREINCUBATION) “inactive; negative”; (Test System: AMES SALMONELLA TYPHIMURIUM, Strain/Indicator: TA100, Metabolic Activation: HAMSTER, LIVER, S-9, AROCLOR 1254 (30%), Method: PREINCUBATION) “active; positive”; under setting [2], “inactive; negative”; (Test System: AMES SALMONELLA TYPHIMURIUM, Strain/Indicator: TA100, Metabolic Activation: RAT, LIVER, S-9, AROCLOR 1254 (30%), Method: PREINCUBATION) “active; positive”; (Test System: AMES SALMONELLA TYPHIMURIUM, Strain/Indicator: TA100, Metabolic Activation: RAT, LIVER, S-9, AROCLOR 1254, Method: PREINCUBATION) “active; positive”; (Test System: AMES SALMONELLA TYPHIMURIUM, Strain/Indicator: TA100, Metabolic Activation: S-9, Method: PREINCUBATION) “active; positive”. The mutagenic call reads like this: (Test System: AMES SALMONELLA TYPHIMURIUM, Strain/Indicator: TA100, Metabolic Activation: TOBACCO CELLS, Method: PREINCUBATION) “inactive; negative”; (Test System: AMES SALMONELLA TYPHIMURIUM, Strain/Indicator: TA104, Metabolic Activation: RAT, LIVER, S-9, AROCLOR 1254, Method: PREINCUBATION) “active; positive”; (Test System: AMES SALMONELLA TYPHIMURIUM, Strain/Indicator: TA1530, Metabolic Activation: RAT, LIVER, S-9, Method: STANDARD PLATE) “active; positive”; (Test System: AMES SALMONELLA TYPHIMURIUM, Strain/Indicator: TA1535, Metabolic Activation: NONE, Method: PREINCUBATION) “inactive; negative”; (Test System: AMES SALMONELLA TYPHIMURIUM, Strain/Indicator: TA1535, Metabolic Activation: RAT, LIVER, HEPATOCYTES, Method: PREINCUBATION) “active; positive”; (Test System: AMES SALMONELLA TYPHIMURIUM, Strain/Indicator: TA1535, Metabolic Activation: RAT, LIVER, S-9, AROCLOR 1254, Method: PREINCUBATION) “active; positive”. The mutagenic call was “active; positive” (Test System: AMES SALMONELLA TYPHIMURIUM, Strain/Indicator: TA1535, Metabolic Activation: RAT, LIVER, S-9, AROCLOR, Method: PREINCUBATION); “active; positive” (Test System: AMES SALMONELLA TYPHIMURIUM, Strain/Indicator: TA1535, Metabolic Activation: RAT, LIVER, S-9, SODIUM PHENOBARBITONE, Method: PREINCUBATION); “active; positive” (Test System: AMES SALMONELLA TYPHIMURIUM, Strain/Indicator: TA1535, Metabolic Activation: RAT, LIVER, S-9, Method: PREINCUBATION); “active; positive” (Test System: AMES SALMONELLA TYPHIMURIUM, Strain/Indicator: TA1975, Metabolic Activation: RAT, LIVER, S-9, AROCLOR 1254, Method: PREINCUBATION); “active; positive” (Test System: CHINESE HAMSTER V-79, Strain/Indicator: V-79/8-AZAGUANINE, Metabolic Activation: RAT, LIVER, S-15, PHENOBARBITAL, Method: STANDARD PLATE); “active; positive” under setting [3].
As for `O=[N+]([O-])c1ccc(-c2ccc([N+](=O)[O-])cc2)cc1`, the mutagenic call by setting is: (Test System: AMES SALMONELLA TYPHIMURIUM, Strain/Indicator: TA98(1,8-DNP6), Metabolic Activation: NONE, Method: STANDARD PLATE) “active; positive”; (Test System: AMES SALMONELLA TYPHIMURIUM, Strain/Indicator: TA98(NR), Metabolic Activation: NONE, Method: STANDARD PLATE) “inactive; negative”; under setting [1], “active; positive”; under setting [4], “active; positive”; (Test System: AMES SALMONELLA TYPHIMURIUM, Strain/Indicator: TA98, Metabolic Activation: RAT, LIVER, S-9, PCB (10%), Method: PREINCUBATION) “active; positive”.
For `CCn1cc(C(=O)O)c(=O)c2cnc(N3CCNCC3)nc21`, the mutagenic call reads like this: (End Point: In vitro micronucleus, Test System: WTK-1 human lymphoma cells, Metabolic Activation: None) “inactive; negative”; under setting [1], “inactive; negative”; (Test System: AMES SALMONELLA TYPHIMURIUM, Strain/Indicator: TA98, Metabolic Activation: RAT LIVER S-9, AROCLOR 1254, Method: PREINCUBATION) “inactive; negative”; under setting [2], “inactive; negative”; (Test System: AMES SALMONELLA TYPHIMURIUM, Strain/Indicator: TA100, Metabolic Activation: RAT LIVER S-9, AROCLOR 1254, Method: PREINCUBATION) “inactive; negative”; (Test System: AMES SALMONELLA TYPHIMURIUM, Strain/Indicator: TA102, Metabolic Activation: RAT LIVER S-9, AROCLOR 1254, Method: PREINCUBATION) “active; positive”. Moreover, the mutagenic call is “inactive; negative” (Test System: AMES SALMONELLA TYPHIMURIUM, Strain/Indicator: TA104, Metabolic Activation: NONE, Method: PREINCUBATION); “inactive; negative” (Test System: AMES SALMONELLA TYPHIMURIUM, Strain/Indicator: TA104, Metabolic Activation: RAT LIVER S-9, AROCLOR 1254, Method: PREINCUBATION); “inactive; negative” (Test System: AMES SALMONELLA TYPHIMURIUM, Strain/Indicator: UHT8414, Metabolic Activation: NONE, Method: PREINCUBATION); “inactive; negative” (Test System: AMES SALMONELLA TYPHIMURIUM, Strain/Indicator: UHT8414, Metabolic Activation: RAT LIVER S-9, AROCLOR 1254, Method: PREINCUBATION).
In the case of `CCC1=C(C(=O)OC)C(=O)OC1C` (configuration not stated), the mutagenic call is “inactive; negative” (Test System: AMES SALMONELLA TYPHIMURIUM, Strain/Indicator: TA98, Metabolic Activation: NONE, Method: DISK ASSAY); “active; positive” under setting [4]; “inactive; negative” (Test System: AMES SALMONELLA TYPHIMURIUM, Strain/Indicator: TA98, Metabolic Activation: RAT, LIVER, S-9, AROCLOR 1254, Method: DISK ASSAY); “active; positive” under setting [5].
Regarding `CC(=O)N=c1sn(C(C)=O)c2ccc([N+](=O)[O-])cc12`, the mutagenic call (Test System: AMES SALMONELLA TYPHIMURIUM, Strain/Indicator: TA100, Metabolic Activation: S-9, Method: STANDARD PLATE) was “active; positive”.
In the case of `Cc1cc(N(C)C)ccc1N=Nc1ccccc1`, the mutagenic call by setting is: (Test System: AMES SALMONELLA TYPHIMURIUM, Strain/Indicator: TA98, Metabolic Activation: RAT, LIVER, MICROSOMES, 2-METHYL-4-DIMETHYLAMINOAZOBENZENE, Method: PREINCUBATION) “inactive; negative”; (Test System: AMES SALMONELLA TYPHIMURIUM, Strain/Indicator: TA98, Metabolic Activation: RAT, LIVER, MICROSOMES, AROCLOR 1254, Method: PREINCUBATION) “active; positive”; (Test System: AMES SALMONELLA TYPHIMURIUM, Strain/Indicator: TA98, Metabolic Activation: RAT, LIVER, MICROSOMES, Method: PREINCUBATION) “inactive; negative”; under setting [5], “active; positive”; (Test System: AMES SALMONELLA TYPHIMURIUM, Strain/Indicator: TA98, Metabolic Activation: RAT, LIVER, S-9, KC500 OR PHENOBARBITAL, Method: LIQUID SUSPENSION) “active; positive”; (Test System: AMES SALMONELLA TYPHIMURIUM, Strain/Indicator: TA100, Metabolic Activation: RAT, LIVER, S-9, AROCLOR 1254, Method: STANDARD PLATE) “active; positive”. Also, the mutagenic call is “active; positive” (Test System: AMES SALMONELLA TYPHIMURIUM, Strain/Indicator: TA100, Metabolic Activation: RAT, LIVER, S-9, KC500 OR PHENOBARBITAL, Method: LIQUID SUSPENSION) and “active; positive” under setting [3].
